Results from ChEMBL document CHEMBL1146116, “N-thiolated 2-oxazolidinones: a new family of antibacterial agents for methicillin-resistant Staphylococcus aureus and Bacillus anthracis” (2006).
≈ marks a conversion by molar mass, not a printed value.

Key:
Assay type in all cases: functional
[1] = tested on: Staphylococcus aureus; experiment: Antibacterial activity against methicillin-resistant Staphylococcus aureus USF653 by agar disk diffusion method
[2] = tested on: Staphylococcus aureus; experiment: Antibacterial activity against methicillin-resistant Staphylococcus aureus USF655 by agar disk diffusion method
[3] = tested on: Staphylococcus aureus; experiment: Antibacterial activity against methicillin-resistant Staphylococcus aureus USF658 by agar disk diffusion method
[4] = tested on: Staphylococcus aureus; experiment: Antibacterial activity against Staphylococcus aureus 849 ATCC 25923 by agar disk diffusion method
[5] = tested on: Staphylococcus aureus; experiment: Antibacterial activity against methicillin-resistant Staphylococcus aureus USF657 by agar disk diffusion method
[6] = tested on: Staphylococcus aureus; experiment: Antibacterial activity against methicillin-resistant Staphylococcus aureus USF656 by agar disk diffusion method
[7] = tested on: Staphylococcus aureus; experiment: Antibacterial activity against methicillin-resistant Staphylococcus aureus USF659 by agar disk diffusion method
[8] = tested on: Staphylococcus aureus; experiment: Antibacterial activity against methicillin-resistant Staphylococcus aureus USF654 by agar disk diffusion method
[9] = tested on: Staphylococcus aureus; experiment: Antibacterial activity against methicillin-resistant Staphylococcus aureus USF652 by agar disk diffusion method
[10] = tested on: Bacillus cereus; experiment: Antibacterial activity against Bacillus cereus by agar disk diffusion method
[11] = tested on: Priestia megaterium; experiment: Antibacterial activity against Bacillus megaterium by agar disk diffusion method
[12] = tested on: Bacillus subtilis; experiment: Antibacterial activity against Bacillus subtilis by agar disk diffusion method
[13] = tested on: Bacillus subtilis; experiment: Antibacterial activity against Bacillus globigii by agar disk diffusion method
[14] = tested on: Staphylococcus aureus; experiment: Antibacterial activity against methicillin-resistant Staphylococcus aureus USF919 ATCC 43300 by agar disk diffusion method
[15] = tested on: Staphylococcus aureus; experiment: Antibacterial activity against methicillin-resistant Staphylococcus aureus USF920 ATCC 33591 by agar disk diffusion method
[16] = tested on: Heyndrickxia coagulans; experiment: Antibacterial activity against Bacillus coagulans by agar disk diffusion method
[17] = tested on: Bacillus thuringiensis; experiment: Antibacterial activity against Bacillus thuringiensis by agar disk diffusion method
[18] = tested on: Staphylococcus aureus; experiment: Antibacterial activity against Staphylococcus aureus
[19] = tested on: Staphylococcus aureus; experiment: Antibacterial activity against methicillin-resistant Staphylococcus aureus

`CO[C@H]1C(=O)N(SC)[C@H]1c1ccccc1` gave an inhibition zone (IZ) [1] of 30 mm, an inhibition zone (IZ) [2] of 25 mm and an inhibition zone (IZ) [3] of 26 mm. For the same molecule, the inhibition zone (IZ) [4] was 25 mm, the inhibition zone (IZ) [5] was 27 mm and the inhibition zone (IZ) [6] was 28 mm. For the same molecule, the inhibition zone (IZ) [7] was 24 mm, the inhibition zone (IZ) [8] was 26 mm and the inhibition zone (IZ) [9] was 30 mm.

`CSN1C(=O)OC[C@@H]1c1ccccc1` gave an inhibition zone (IZ) [1] of 31 mm, an inhibition zone (IZ) [2] of 29 mm and an inhibition zone (IZ) [10] of 24 mm. The inhibition zone (IZ) [11] was 18 mm, the inhibition zone (IZ) [12] was 19 mm and the inhibition zone (IZ) [13] was 15 mm. The inhibition zone (IZ) [3] was 29 mm, the inhibition zone (IZ) [4] was 30 mm and the inhibition zone (IZ) [14] was 30 mm. For the same molecule, the inhibition zone (IZ) [5] was 29 mm, the inhibition zone (IZ) [15] was 28 mm and the inhibition zone (IZ) [6] was 31 mm. For the same molecule, the inhibition zone (IZ) [7] was 26 mm, the inhibition zone (IZ) [8] was 29 mm and the inhibition zone (IZ) [9] was 30 mm. The inhibition zone (IZ) [16] was 17 mm and the inhibition zone (IZ) [17] was 17 mm.

In the case of `CC1(C)S[C@@H]2[C@H](NC(=O)Cc3ccccc3)C(=O)N2[C@H]1C(=O)O` [PENICILLIN G], the inhibition zone (IZ) [1] is reported as 15 mm, the inhibition zone (IZ) [2] is reported as 14 mm and the inhibition zone (IZ) [3] is reported as 19 mm. It also gave an inhibition zone (IZ) [4] of 33 mm, an inhibition zone (IZ) [5] of 12 mm and an inhibition zone (IZ) [6] of 12 mm. The inhibition zone (IZ) [7] was 16 mm, the inhibition zone (IZ) [8] was 10 mm and the inhibition zone (IZ) [9] was 8 mm.

For `COC(=O)[C@@H]1OC(=O)N(SC)[C@H]1c1ccccc1`, the inhibition zone (IZ) [1] was 19 mm, the inhibition zone (IZ) [2] was 14 mm and the inhibition zone (IZ) [3] was 14 mm. It also gave an inhibition zone (IZ) [4] of 16 mm, an inhibition zone (IZ) [14] of 11 mm and an inhibition zone (IZ) [5] of 12 mm. It also gave an inhibition zone (IZ) [15] of 0 mm, an inhibition zone (IZ) [6] of 15 mm and an inhibition zone (IZ) [7] of 16 mm. It also gave an inhibition zone (IZ) [8] of 14 mm and an inhibition zone (IZ) [9] of 12 mm.

`CSN1C(=O)OC[C@H]1C(C)C` showed an inhibition zone (IZ) [1] of 25 mm, an inhibition zone (IZ) [2] of 18 mm and an inhibition zone (IZ) [10] of 15 mm. The inhibition zone (IZ) [11] was 10 mm, the inhibition zone (IZ) [12] was 19 mm and the inhibition zone (IZ) [13] was 17 mm. For the same molecule, the inhibition zone (IZ) [3] was 19 mm, the inhibition zone (IZ) [4] was 21 mm and the inhibition zone (IZ) [14] was 13 mm. It also gave an inhibition zone (IZ) [5] of 19 mm, an inhibition zone (IZ) [15] of 15 mm and an inhibition zone (IZ) [6] of 20 mm. The inhibition zone (IZ) [7] was 22 mm, the inhibition zone (IZ) [8] was 20 mm and the inhibition zone (IZ) [9] was 12 mm. The inhibition zone (IZ) [16] was 0 mm and the inhibition zone (IZ) [17] was 0 mm.

`CSN1C(=O)OC[C@@H]1C(C)C` was tested, and the inhibition zone (IZ) [1] was 27 mm, the inhibition zone (IZ) [2] was 22 mm and the inhibition zone (IZ) [10] was 22 mm. It also gave an inhibition zone (IZ) [11] of 18 mm, an MIC [18] of 16 µg/mL (≈ 91.3 µM) and an inhibition zone (IZ) [12] of 17 mm. For the same molecule, the inhibition zone (IZ) [13] was 15 mm, the MIC [19] was 16 µg/mL (≈ 91.3 µM) and the inhibition zone (IZ) [3] was 16 mm. For the same molecule, the inhibition zone (IZ) [4] was 20 mm, the inhibition zone (IZ) [14] was 21 mm and the inhibition zone (IZ) [5] was 22 mm. The inhibition zone (IZ) [15] was 18 mm, the inhibition zone (IZ) [6] was 22 mm and the inhibition zone (IZ) [7] was 22 mm. It also gave an inhibition zone (IZ) [8] of 23 mm, an inhibition zone (IZ) [9] of 19 mm and an inhibition zone (IZ) [16] of 17 mm. For the same molecule, the inhibition zone (IZ) [17] was 16 mm.

`CSN1C(=O)OCC1Cc1ccccc1` (stereo not given) was tested, and the inhibition zone (IZ) [1] was 20 mm, the inhibition zone (IZ) [2] was 17 mm and the inhibition zone (IZ) [3] was 17 mm. For the same molecule, the inhibition zone (IZ) [4] was 17 mm, the inhibition zone (IZ) [14] was 19 mm and the inhibition zone (IZ) [5] was 19 mm. The inhibition zone (IZ) [15] was 19 mm, the inhibition zone (IZ) [6] was 19 mm and the inhibition zone (IZ) [7] was 19 mm. The inhibition zone (IZ) [8] was 18 mm and the inhibition zone (IZ) [9] was 17 mm.

Work on `CSN1C(=O)OC[C@H]1c1ccccc1` yielded an inhibition zone (IZ) [1] of 30 mm, an inhibition zone (IZ) [2] of 28 mm and an inhibition zone (IZ) [10] of 23 mm. For the same molecule, the inhibition zone (IZ) [11] was 20 mm, the MIC [18] was 8 µg/mL (≈ 38.2 µM) and the inhibition zone (IZ) [12] was 19 mm. The inhibition zone (IZ) [13] was 17 mm, the MIC [19] was 8 µg/mL (≈ 38.2 µM) and the inhibition zone (IZ) [3] was 27 mm. It also gave an inhibition zone (IZ) [4] of 29 mm, an inhibition zone (IZ) [14] of 28 mm and an inhibition zone (IZ) [5] of 27 mm. For the same molecule, the inhibition zone (IZ) [15] was 28 mm, the inhibition zone (IZ) [6] was 28 mm and the inhibition zone (IZ) [7] was 26 mm. The inhibition zone (IZ) [8] was 26 mm, the inhibition zone (IZ) [9] was 30 mm and the inhibition zone (IZ) [16] was 17 mm. The inhibition zone (IZ) [17] was 15 mm.

`CCC(C)SN1CC(CCl)OC1=O` (stereo not given) showed an inhibition zone (IZ) [1] of 20 mm, an inhibition zone (IZ) [2] of 22 mm and an inhibition zone (IZ) [3] of 21 mm. It also gave an inhibition zone (IZ) [4] of 19 mm, an inhibition zone (IZ) [14] of 19 mm and an inhibition zone (IZ) [5] of 22 mm. The inhibition zone (IZ) [15] was 19 mm, the inhibition zone (IZ) [6] was 20 mm and the inhibition zone (IZ) [7] was 20 mm. It also gave an inhibition zone (IZ) [8] of 22 mm and an inhibition zone (IZ) [9] of 19 mm.

In the case of `CSN1C(=O)O[C@@H](CN=[N+]=[N-])[C@@H]1c1ccccc1`, the inhibition zone (IZ) [1] is reported as 32 mm, the inhibition zone (IZ) [2] is reported as 30 mm and the inhibition zone (IZ) [3] is reported as 31 mm. The inhibition zone (IZ) [4] was 31 mm, the inhibition zone (IZ) [14] was 32 mm and the inhibition zone (IZ) [5] was 30 mm. The inhibition zone (IZ) [15] was 32 mm, the inhibition zone (IZ) [6] was 31 mm and the inhibition zone (IZ) [7] was 28 mm. The inhibition zone (IZ) [8] was 30 mm and the inhibition zone (IZ) [9] was 30 mm.

In the case of `CSN1CC(CCl)OC1=O` (stereo not given), the inhibition zone (IZ) [1] is reported as 20 mm, the inhibition zone (IZ) [2] is reported as 20 mm and the inhibition zone (IZ) [3] is reported as 18 mm. It also gave an inhibition zone (IZ) [4] of 21 mm, an inhibition zone (IZ) [14] of 20 mm and an inhibition zone (IZ) [5] of 21 mm. It also gave an inhibition zone (IZ) [15] of 16 mm, an inhibition zone (IZ) [6] of 22 mm and an inhibition zone (IZ) [7] of 19 mm. The inhibition zone (IZ) [8] was 20 mm and the inhibition zone (IZ) [9] was 16 mm.
